Our source for the inhibition and IC50 values is patent publication US20260224555A1, “NEW PHENYLQUINOLONE COMPOUND HAVING ANTIBACTERIAL AND ANTI-CANCER FUNCTIONS AND PREPARATION THEREOF” (AlphaMol Science Ltd (Shanghai), priority 2022, published 2026).

Assay in all cases: In vitro anticancer activity test (MTT cell proliferation)
Common to all, as to assay type: cell-based

Test [1] deals with Hela. The settings on record: Homo sapiens, average proliferation inhibition rate at the dosage of 40 μM, read-out: Hela Average inhibition rate %. The method, then:
(§1) The anticancer activity of the compounds was tested using an in vitro cancer cell tests. The specific test method is as follows:
(§2) 1. Cell recovery and culture method: the cryovial was taken out from the liquid nitrogen container firstly, soaked directly in 37° C. warm water, and shaked from time to time to let it thaw as soon as possible. Then, the cryovial was transferred to a clean bench, and the lid was open. The cell suspension was taken into a centrifuge tube using a rubber-tipped dropper and more than 10 times the culture medium was added, mixed well, and centrifuged at 50 g for 5 minutes. Then, the supernatant was discarded, complete culture medium containing 10% fetal bovine serum was added to resuspend the cells, the cells was counted, the cell density was adjusted, and then inoculated into a culture bottle. The culture bottle was placed in a cell culture incubator at 5% CO2 and 37° C. The complete culture medium was replaced once the next day and the culture was continued.
(§3) 2. Cell passaging method: adherent cells in the logarithmic growth phase were placed in a clean bench, the original culture medium was discarded, and washed three times with 1×PBS. An appropriate amount of 0.25% trypsin digestion solution was added to moisten the cells, and then the trypsin solution was aspirated. The cells were placed in a cell culture incubator at 5% CO2 and 37° C. for digestion for a suitable time, and observed under a microscope. When 90% of the cells become round, the cells were moved immediately to the clean bench and complete culture medium was added to terminate digestion. Then, the cells were dislodged by pipetting up and down with a rubber-tipped dropper to single cells. The cells were counted, and the cell density was adjusted. The cells were inoculated into a suitable culture bottle or dish, added enough complete culture medium, and placed in a cell culture incubator at 5% CO2 and 37° C. for static culture.
(§4) For suspension cells in the logarithmic phase, the original culture medium was directly centrifuged at 50 g for 5 minutes, the supernatant was discarded, and the cells were washed once with PBS and centrifuged. After discarding the supernatant, the complete culture medium was added and the cells were dispersed using a rubber-tipped dropper. The cells are counted, and the cell density was adjusted. The cells were inoculated into appropriate culture bottles or culture dishes, and sufficient complete culture medium was added, and the cells were cultured in a cell culture incubator at 5% CO2 and 37° C.
(§5) 3. Cell proliferation assay: cells in good state in logarithmic phase were taken and appropriate amount of the cells was inoculated into 96-well plates according to the cell passage treatment method, with each well containing 180 μL complete medium. After the cells growth was recovered and the number of cells in each well is 5000±500, a drug was added for treatment.
After drug treatment during the experimental time, MTT solution with a final concentration of 0.5 mg/mL was added to each well, and placed in a cell culture incubator at 5% CO2 and 37° C. to allow a fully reaction of MTT with cells. After 4 hours, the solution in the 96-well plate was discarded, 100 µL of DMSO was added, and shaked to dissolve the formazan precipitated at the bottom of the plate, and the absorbance value of samples was detected at a wavelength of 570 nm using a microplate reader. Calculation method of cell viability rate:
Table 4 lists some compounds that have inhibitory effects against both of bacteria and cancer cells. In the table, the inhibitory effects against cancer cells are shown: the average proliferation inhibition rate (%) against cancer cells at the dosage of 40 μM.

The subject of test [2] is human Burkitt's lymphoma cell Raji. The protocol:
as §1, §2, §3, §4, §5
(§6) After drug treatment during the experimental time, MTT solution with a final concentration of 0.5 mg/mL was added to each well, and placed in a cell culture incubator at 5% CO2 and 37° C. to allow a fully reaction of MTT with cells. After 4 hours, the solution in the 96-well plate was discarded, 100 µL of DMSO was added, and shaked to dissolve the formazan precipitated at the bottom of the plate, and the absorbance value of samples was detected at a wavelength of 570 nm using a microplate reader. Calculation method of cell viability rate: […]

Test [3] has as its system human acute monocytic leukemia cell THP-1. The protocol: as §1, §2, §3, §4, §5, §6
Test [4] deals with human acute myeloid leukemia cell MOLM-13. The method, then:
as §1, §2, §3, §4, §5, §6

In test [5] the test system is human breast cancer cell MFM223. The settings on record: MFM-223. The protocol: as §1, §2, §3, §4, §5, §6
For test [6], the system named is human colon cancer cell HCT 116. The method, then:
as §1, §2, §3, §4, §5, §6

Test [7] relates to human gastric cancer cell MGC-803. The protocol: as §1, §2, §3, §4, §5, §6
The test system of test [8] is human glioma cell SNB-19. The method, then: as §1, §2, §3, §4, §5, §6
In test [9] the test system is human liver cancer cell BLE-7402. The method, then: as §1, §2, §3, §4, §5, §6
Test [10] deals with human liver cancer cell HepG2. The protocol:
as §1, §2, §3, §4, §5, §6

The test system of test [11] is human malignant melanoma cell A375. The settings on record: A-375. The method, then:
as §1, §2, §3, §4, §5, §6

In test [12] the test system is human non-small cell lung cancer cell A549. The method, then: as §1, §2, §3, §4, §5, §6
The test system of test [13] is human osteosarcoma cell U2-OS. The settings on record: U2OS. The method, then:
as §1, §2, §3, §4, §5, §6

Test [14] has as its system human prostate cancer cell PC-3. The method, then: as §1, §2, §3, §4, §5, §6
Test [15] concerns human renal cancer cell OS-RC-2. The protocol:
as §1, §2, §3, §4, §5, §6

The test system of test [16] is pancreatic cancer cell PNAC-1. The method, then: as §1, §2, §3, §4, §5, §6
Test [17] concerns human acute T-lymphoblastic leukemia cell Jurkat. The protocol:
as §1, §2, §3, §4

Test [18] concerns human bladder transitional cell carcinoma cell T24. The settings on record: T-24. The method, then: as §1, §2, §3, §4
Test [19] concerns human breast cancer cell MCF-7. The settings on record: MCF7. The method, then:
as §1, §2, §3, §4

Test [20] concerns human breast ductal carcinoma cell T-47D. The following applies: T47D. The method, then:
as §1, §2, §3, §4

For test [21], the system named is human epidermal carcinoma cell A431. The following applies: A-431. The method, then:
as §1, §2, §3, §4

The subject of test [22] is human ovarian adenocarcinoma cell SK-OV-3. The protocol: as §1, §2, §3, §4
Test [23] has as its system Hela. The following applies: Homo sapiens.

In the case of `O=C(CCl)Nc1ncc(-c2cc3c(cc2F)c(=O)c(C(=O)O)cn3C2CC2)cc1F` [Example 135], in test [1], the inhibition at 40 µM was ≥ 50%. The concentration for half-maximal inhibition (IC50) in test [2], in test [3], in test [4], in test [5], in test [6] and in test [7] was 1 to 10 µM in each case. Moreover, the IC50 in test [8], in test [9], in [10], in test [11], in test [12] and in [13] was 1 to 10 µM each time. Besides, the IC50 in test [14], in test [15], in test [16], in test [17], in [18] and in test [19] was 1 to 10 µM in each case. The IC50 in [20], in [21], in [22] and in test [23] was 1 to 10 µM in each case.
